Reference: patent US10519152B2, “Compounds and their use in treating cancer” (AstraZeneca AB, priority 2017, dated 2019)

molecular target: T1, recombinant human Estrogen Receptor alpha ligand binding domain, residues 307-554 (ER alpha-LBD (GST)) (Homo sapiens, UniProt P03372); assay: ERα binding assay (LanthaScreen TR-FRET competition); conditions: TR-FRET competition with Fluormone ES2 tracer, 4 hours at room temperature; single experiment or average of two or more
T1 construct: made in house
T1 sequence (P03372 307-554): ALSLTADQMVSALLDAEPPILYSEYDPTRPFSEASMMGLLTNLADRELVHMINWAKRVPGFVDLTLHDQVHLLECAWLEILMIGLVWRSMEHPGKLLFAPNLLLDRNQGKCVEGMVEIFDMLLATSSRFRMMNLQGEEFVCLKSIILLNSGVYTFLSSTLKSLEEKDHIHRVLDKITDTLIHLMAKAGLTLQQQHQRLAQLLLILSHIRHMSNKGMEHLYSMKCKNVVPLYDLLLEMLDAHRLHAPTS

Which IC50 does the source give for Cc1ncsc1-c1ccc(CNC(=O)[C@@H]2C[C@@H](O)CN2C(=O)[C@@H](NC(=O)CNCc2ccc(COc3cc(F)c([C@@H]4c5[nH]c6ccccc6c5C[C@@H](C)N4CC(C)(C)F)c(F)c3)nc2)C(C)(C)C)cc1 [Example 146] here?
Its IC50 is 0.8 nM.

With COC(=O)[C@@H](C)CN1[C@H](c2c(F)cc(OCCOCCOCCOCC(=O)N[C@H](C(=O)N3C[C@H](O)C[C@H]3C(=O)NCc3ccc(-c4scnc4C)cc3)C(C)(C)C)cc2F)c2[nH]c3ccccc3c2C[C@H]1C [Example 29] as the molecule, how does the IC50 read?
Its IC50 is 5.9 nM.

For Cc1ncsc1-c1ccc(CNC(=O)[C@@H]2C[C@@H](O)CN2C(=O)[C@@H](NC(=O)COCCCCCCOc2cc(F)c([C@@H]3c4[nH]c5ccccc5c4C[C@@H](C)N3CC(C)(C)F)c(F)c2)C(C)(C)C)cc1 [Example 51, (2S,4R)-1-((S)-2-(2-((6-(3,5-difluoro-4-((1R,3R)-2-(2-fluoro-2-methylpropyl)-3-methyl-2,3,4,9-tetrahydro-1H-pyrido[3,4-b]indol-1-yl)phenoxy)hexyl)oxy)acetamido)-3,3-dimethylbutanoyl)-4-hydroxy-N-(4-(4-methylthiazol-5-yl)benzyl)pyrrolidine-2-carboxamide], which IC50 is on record?
The IC50 was 2 nM.

For Cc1ncsc1-c1ccc(CNC(=O)[C@@H]2C[C@@H](O)CN2C(=O)[C@@H](NC(=O)COCCOCCCCOc2cc(F)c([C@@H]3c4[nH]c5ccccc5c4C[C@@H](C)N3CC(C)(C)F)c(F)c2)C(C)(C)C)cc1 [Example 128, (2S,4R)-1-((S)-2-(2-(2-(4-(3,5-Difluoro-4-((1R,3R)-2-(2-fluoro-2-methylpropyl)-3-methyl-2,3,4,9-tetrahydro-1H-pyrido[3,4-b]indol-1-yl)phenoxy)butoxy)ethoxy)acetamido)-3,3-dimethylbutanoyl)-4-hydroxy-N-(4-(4-methylthiazol-5-yl)benzyl)pyrrolidine-2-carboxamide], which IC50 is on record?
The IC50 was 0.6 nM.

With Cc1ncsc1-c1ccc([C@H](C)NC(=O)[C@@H]2C[C@@H](O)CN2C(=O)[C@@H](NC(=O)COCCCOCCCOc2cc(F)c([C@@H]3c4[nH]c5ccccc5c4C[C@@H](C)N3CC(C)(C)F)c(F)c2)C(C)(C)C)cc1 [Example 152, (2S,4R)-1-((S)-2-(2-(3-(3-(3,5-Difluoro-4-((1R,3R)-2-(2-fluoro-2-methylpropyl)-3-methyl-2,3,4,9-tetrahydro-1H-pyrido[3,4-b]indol-1-yl)phenoxy)propoxy)propoxy)acetamido)-3,3-dimethylbutanoyl)-4-hydroxy-N—((S)-1-(4-(4-methylthiazol-5-yl)phenyl)ethyl)pyrrolidine-2-carboxamide] as the molecule, how does the IC50 read?
The IC50 was 0.5 nM.

For Cc1ncsc1-c1ccc(CNC(=O)C2CC(O)CN2C(=O)C(NC(=O)COCCOc2cc(F)c(C3c4[nH]c5ccccc5c4CC(C)N3CC(C)(C)F)c(F)c2)C(C)(C)C)cc1 [Example 40, (2S,4R)-1-((S)-2-(2-(2-(3,5-Difluoro-4-((1R,3R)-2-(2-fluoro-2-methylpropyl)-3-methyl-2,3,49-tetrahydro-1H-pyrido[3,4-b]indol-1-yl)phenoxy)ethoxy)acetamido)-3,3-dimethylbutanoyl)-4-hydroxy-N-(4-(4-methylthiazol-5-yl)benzyl)pyrrolidine-2-carboxamide], which IC50 is on record?
The IC50 was 1.3 nM.

Cc1ncsc1-c1ccc(CNC(=O)[C@@H]2C[C@@H](O)CN2C(=O)[C@@H](NC(=O)COCCCCOc2cc(F)c([C@@H]3c4[nH]c5ccccc5c4C[C@@H](C)N3CC(C)(C)F)c(F)c2)C(C)(C)C)cc1 [Example 14, (2S,4R)-1-((S)-2-(2-(4-(3,5-Difluoro-4-((1R,3R)-2-(2-fluoro-2-methylpropyl)-3-methyl-2,3,4,9-tetrahydro-1H-pyrido[3,4-b]indol-1-yl)phenoxy)butoxy)acetamido)-3,3-dimethylbutanoyl)-4-hydroxy-N-(4-(4-methylthiazol-5-yl)benzyl)pyrrolidine-2-carboxamide] was tested. Which IC50 did it give?
Its IC50 is 0.9 nM.

Cc1ncsc1-c1ccc(CNC(=O)[C@@H]2C[C@@H](O)CN2C(=O)[C@@H](NC(=O)CCCCCCCCCOc2cc(F)c([C@@H]3c4[nH]c5ccccc5c4C[C@@H](C)N3CC(C)(C)F)c(F)c2)C(C)(C)C)cc1 [Example 11, (2S,4R)-1-((S)-2-(10-(3,5-Difluoro-4-((1R,3R)-2-(2-fluoro-2-methylpropyl)-3-methyl-2,3,4,9-tetrahydro-1H-pyrido[3,4-b]indol-1-yl)phenoxy)decanamido)-3,3-dimethylbutanoyl)-4-hydroxy-N-(4-(4-methylthiazol-5-yl)benzyl)pyrrolidine-2-carboxamide] was tested. Which IC50 did it give?
Its IC50 is 1.5 nM.

Cc1ncsc1-c1ccc([C@H](C)NC(=O)[C@@H]2C[C@@H](O)CN2C(=O)[C@@H](NC(=O)COCCOCCCCCOc2cc(F)c([C@@H]3c4[nH]c5ccccc5c4C[C@@H](C)N3CC(C)(C)F)c(F)c2)C(C)(C)C)cc1 [Example 156, (2S,4R)-1-((S)-2-(2-(2-((5-(3,5-Difluoro-4-((1R,3R)-2-(2-fluoro-2-methylpropyl)-3-methyl-2,3,4,9-tetrahydro-1H-pyrido[3,4-b]indol-1-yl)phenoxy)pentyl)oxy)ethoxy)acetamido)-3,3-dimethylbutanoyl)-4-hydroxy-N—((S)-1-(4-(4-methylthiazol-5-yl)phenyl)ethyl)pyrrolidine-2-carboxamide] was tested. Which IC50 did it give?
Its IC50 is 0.6 nM.

For Cc1ncsc1-c1ccc(CNC(=O)[C@@H]2C[C@@H](O)CN2C(=O)[C@@H](NC(=O)CNCCCCCCCCOc2cc(F)c([C@@H]3c4[nH]c5ccccc5c4C[C@@H](C)N3CC(C)(C)F)c(F)c2)C(C)(C)C)cc1 [Example 147, (2S,4R)-1-((S)-2-(2-((8-(3,5-Difluoro-4-((1R,3R)-2-(2-fluoro-2-methylpropyl)-3-methyl-2,3,4,9-tetrahydro-1H-pyrido[3,4-b]indol-1-yl)phenoxy)octyl)amino)acetamido)-3,3-dimethylbutanoyl)-4-hydroxy-N-(4-(4-methylthiazol-5-yl)benzyl)pyrrolidine-2-carboxamide], which IC50 is on record?
The IC50 was 1 nM.

Cc1ncsc1-c1ccc(CNC(=O)[C@@H]2C[C@@H](O)CN2C(=O)[C@@H](NC(=O)COCC/C=C/CCOc2cc(F)c([C@@H]3c4[nH]c5ccccc5c4C[C@@H](C)N3CC(C)(C)F)c(F)c2)C(C)(C)C)cc1 [Example 22, (2S,4R)-1-((S)-2-(2-(((E)-6-(3,5-Difluoro-4-((1R,3R)-2-(2-fluoro-2-methylpropyl)-3-methyl-2,3,4,9-tetrahydro-1H-pyrido[3,4-b]indol-1-yl)phenoxy)hex-3-en-1-yl)oxy)acetamido)-3,3-dimethylbutanoyl)-4-hydroxy-N-(4-(4-methylthiazol-5-yl)benzyl)pyrrolidine-2-carboxamide] was tested. Which IC50 did it give?
The IC50 was 0.7 nM.

For Cc1ncsc1-c1ccc(CNC(=O)[C@@H]2C[C@@H](O)CN2C(=O)[C@@H](NC(=O)COCc2cccc(COc3cc(F)c([C@@H]4c5[nH]c6ccccc6c5C[C@@H](C)N4CC(C)(C)F)c(F)c3)n2)C(C)(C)C)cc1 [Example 132, (2S,4R)-1-((S)-2-(2-((6-((3,5-Difluoro-4-((1R,3R)-2-(2-fluoro-2-methylpropyl)-3-methyl-2,3,4,9-tetrahydro-1H-pyrido[3,4-b]indol-1-yl)phenoxy)methyl)pyridin-2-yl)methoxy)acetamido)-3,3-dimethylbutanoyl)-4-hydroxy-N-(4-(4-methylthiazol-5-yl)benzyl)pyrrolidine-2-carboxamide], which IC50 is on record?
Its IC50 is 0.5 nM.

With Cc1ncsc1-c1ccc(CNC(=O)[C@@H]2C[C@@H](O)CN2C(=O)[C@@H](NC(=O)COCCC(C)(C)CCOc2cc(F)c([C@@H]3c4[nH]c5ccccc5c4C[C@@H](C)N3CC(C)(C)F)c(F)c2)C(C)(C)C)cc1 [Example 23, (2S,4R)-1-((S)-2-(2-((5-(3,5-Difluoro-4-((1R,3R)-2-(2-fluoro-2-methylpropyl)-3-methyl-2,3,4,9-tetrahydro-1H-pyrido[3,4-b]indol-1-yl)phenoxy)-3,3-dimethylpentyl)oxy)acetamido)-3,3-dimethylbutanoyl)-4-hydroxy-N-(4-(4-methylthiazol-5-yl)benzyl)pyrrolidine-2-carboxamide] as the molecule, how does the IC50 read?
The IC50 was 1.1 nM.

Which IC50 does the source give for Cc1ncsc1-c1ccc(CNC(=O)[C@@H]2C[C@@H](O)CN2C(=O)[C@@H](NC(=O)COCc2ccc(C(=O)Nc3cc(F)c([C@@H]4c5[nH]c6ccccc6c5C[C@@H](C)N4CC(C)(C)F)c(F)c3)nc2)C(C)(C)C)cc1 [Example 144, N-(3,5-Difluoro-4-((1R,3R)-2-(2-fluoro-2-methylpropyl)-3-methyl-2,3,4,9-tetrahydro-1H-pyrido[3,4-b]indol-1-yl)phenyl)-5-((2-(((S)-1-((2S,4R)-4-hydroxy-2-((4-(4-methylthiazol-5-yl)benzyl)carbamoyl)pyrrolidin-1-yl)-3,3-dimethyl-1-oxobutan-2-yl)amino)-2-oxoethoxy)methyl)picolinamide] here?
The IC50 was 1.3 nM.

How did the IC50 turn out when Cc1ncsc1-c1ccc([C@@H](CN(C)C)NC(=O)[C@@H]2C[C@@H](O)CN2C(=O)[C@@H](NC(=O)COCCOCCOCCOc2cc(F)c([C@@H]3c4[nH]c5ccccc5c4C[C@@H](C)N3CC(C)(C)F)c(F)c2)C(C)(C)C)cc1 [Example 107, (2S,4R)-1-[(2S)-2-[[2-[2-[2-[2-[3,5-Difluoro-4-[(1R,3R)-2-(2-fluoro-2-methyl-propyl)-3-methyl-1,3,4,9-tetrahydropyrido[3,4-b]indol-1-yl]phenoxy]ethoxy]ethoxy]ethoxy]acetyl]amino]-3,3-dimethyl-butanoyl]-N-[(1S)-2-(dimethylamino)-1-[4-(4-methylthiazol-5-yl)phenyl]ethyl]-4-hydroxy-pyrrolidine-2-carboxamide] was run?
The IC50 was 4 nM.

Which IC50 does the source give for Cc1ncsc1-c1ccc(CNC(=O)[C@@H]2C[C@@H](O)CN2C(=O)[C@@H](NC(=O)CCCCCCCOCCOc2cc(F)c([C@@H]3c4[nH]c5ccccc5c4C[C@@H](C)N3CC(C)(C)F)c(F)c2)C(C)(C)C)cc1 [Example 111, (2S,4R)-1-((S)-2-(8-(2-(3,5-Difluoro-4-((1R,3R)-2-(2-fluoro-2-methylpropyl)-3-methyl-2,3,4,9-tetrahydro-1H-pyrido[3,4-b]indol-1-yl)phenoxy)ethoxy)octanamido)-3,3-dimethylbutanoyl)-4-hydroxy-N-(4-(4-methylthiazol-5-yl)benzyl)pyrrolidine-2-carboxamide] here?
The IC50 was 0.6 nM.
